In patent publication US20140288044A1, “COMPOSITIONS AND THERAPEUTIC USES OF IKK-RELATED KINASE EPSILON AND TANKBINDING KINASE 1 INHIBITORS” (Alzheimer's Institute of America, Inc., priority 2011, published 2014):
Where two headings read alike, the source gives them in different places.

How the values were obtained:
[1] = system: IKKε-mediated phosphorylation of IRF3; test: ELISA for in-situ phosphorylation of IRF3 (phospho-Ser396) in HEK293T cells cotransfected with IRF3 and IKKε; type: cell-based; conditions: Homo sapiens, HEK-293T, 20 h, HEK293T cells, 20 hours, read-out: IC50, in-situ IKKε-mediated phosphorylation of IRF3
Protocol: HEK293T cells were cotransfected in a 10-cm dish with IRF3 and IKKε expression plasmids using Lipofectamine 2000 (Invitrogen, Carlsbad, Calif.). The following day, cells were replated at 20,000 per well in 96-well plates and treated with test compounds (compounds according to Formulae I and/or II) for 20 hours. Cell lysates were prepared and analyzed using an ELISA for phospho-Ser396 (anti-IRF3 capture antibody, Santa Cruz Biotechnology, Inc., Santa Cruz, Calif.; anti-p-Ser396 IRF3 detection antibody, Cell Signaling, Danvers, Mass.). pIRF3 levels in compound treated cells were normalized to DMSO treated cells (no compound). Cell viability was assayed in a parallel set of plates to monitor cytotoxic effects of the test compounds (CellTiter-Glo, Promega, Inc., Madison, Wis.). TBK1 activity was tested by Western blotting using a phospho-specific IRF7 antibody. Similar to above, HEK293T cells were transfected with IRF7 and TBK1 expression plasmids. Cells were seeded in 12-well plates at 150,000 per well and treated overnight with test compounds. Protein lysates were prepared and processed for Western blotting followed by detection using a phosphor-Ser477/Ser479 IRF7 antibody (BD Biosciences, San Jose, Calif.)

IKKε = target: T1, IKKε (Homo sapiens, UniProt Q14164); test: In-vitro IKKε kinase assay (radiolabelled ATP, filterplate); type: biochemical
T1 construct: His-tag (in-house Sf9 preparation) or GST-tag (purchased Invitrogen preparation); these are alternatives, not both on one protein; host or cells: Sf9 cells
T1 sequence (Q14164 1-716): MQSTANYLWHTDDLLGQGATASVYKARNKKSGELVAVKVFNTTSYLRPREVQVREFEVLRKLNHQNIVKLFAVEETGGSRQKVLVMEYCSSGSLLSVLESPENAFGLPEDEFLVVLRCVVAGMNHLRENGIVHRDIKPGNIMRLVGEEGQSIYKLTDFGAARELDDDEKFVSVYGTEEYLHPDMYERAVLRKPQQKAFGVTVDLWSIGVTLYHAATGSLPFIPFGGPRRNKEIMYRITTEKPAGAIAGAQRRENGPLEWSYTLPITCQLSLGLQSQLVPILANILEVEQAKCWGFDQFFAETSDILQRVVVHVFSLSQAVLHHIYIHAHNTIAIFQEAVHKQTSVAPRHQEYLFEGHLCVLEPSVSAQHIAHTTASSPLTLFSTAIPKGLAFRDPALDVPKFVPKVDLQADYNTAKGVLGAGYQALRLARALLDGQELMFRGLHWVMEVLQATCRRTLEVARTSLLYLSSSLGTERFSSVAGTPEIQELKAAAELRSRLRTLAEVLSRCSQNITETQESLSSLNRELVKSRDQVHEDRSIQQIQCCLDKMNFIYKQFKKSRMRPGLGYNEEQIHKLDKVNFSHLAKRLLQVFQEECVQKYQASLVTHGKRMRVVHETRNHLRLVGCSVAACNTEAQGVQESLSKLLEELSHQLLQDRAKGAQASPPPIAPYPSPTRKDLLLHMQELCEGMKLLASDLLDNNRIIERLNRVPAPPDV
How it was run: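 His-tagged IKKε from Sf9 cells or GST-tagged IKKε, with myelin basic protein, casein or dephosphorylated casein as substrate and 32 μM ATP (2× Km) plus [γ^33]ATP. "Normal" assay used 0.1 μg/ml enzyme; "sensitized" used 0.015 μg/ml with dephosphorylated casein only. Stopped after 30–45 min with phosphoric acid; P-81 filter counts normalized to DMSO after background subtraction.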

[2] = range given from about 1 μM to about 250 nM

IC50 [1, 2] [nM] | IC50 [1] [nM] | SMILES | also measured
250 to 1000 | – | N#Cc1cc(-c2ccnc(Nc3ccncc3)n2)ccc1OC1CCOCC1 [Example Compound 34, 5-[2-(Pyridin-4-ylamino)pyrimidin-4-yl]-2-(tetrahydro-2H-pyran-4-yloxy)benzonitrile] | IC50 (IKKε; "sensitized" assay, read-out: IC50, inhibition of the kinase activity of IKKε): < 5 nM; IC50 (IKKε; in-vitro IKKε kinase inhibition assays, given as 0.005 μM (5 nM), read-out: IKKε kinase inhibitory activity (IC50 value)): < 5 nM
– | 100 to 250 | CN(C)c1ccc(Nc2nccc(-c3ccc(OC4CCOCC4)c(C#N)c3)n2)cn1 [Example Compound 152, 5-(2-{[6-(Dimethylamino)pyridin-3-yl]amino}pyrimidin-4-yl)-2-(tetrahydro-2H-pyran-4-yloxy)benzonitrile] | –
250 to 1000 | – | N#Cc1cc(-c2ccnc(Nc3ccnc(N4CCC[C@H]4CO)c3)n2)ccc1OC1CCOCC1 [Example Compound 180, 5-[2-({2-[(2S)-2-(Hydroxymethyl)pyrrolidin-1-yl]pyridin-4-yl}amino)pyrimidin-4-yl]-2-(tetrahydro-2H-pyran-4-yloxy)benzonitrile] | –
– | 100 to 250 | N#Cc1cc(-c2ccnc(Nc3ccc(N4CCOCC4)nc3)n2)ccc1OC1CCOCC1 [Example Compound 6, 5-(2-{[6-(Morpholin-4-yl)pyridin-3-yl]amino}pyrimidin-4-yl)-2-(tetrahydro-2H-pyran-4-yloxy)benzonitrile] | –
– | < 100 | CN1CCN(C(=O)c2ncc(Nc3nccc(-c4ccc(OC5CCOCC5)c(C#N)c4)n3)n2C)CC1 [Example Compound 103, 5-[2-({1-Methyl-2-[(4-methylpiperazin-1-yl)carbonyl]-1H-imidazol-5-yl}amino)pyrimidin-4-yl]-2-(tetrahydro-2H-pyran-4-yloxy)benzonitrile] | –
– | 1000 to 5000 | COC1CN(C(=O)Cc2csc(Nc3nccc(-c4ccc(OC5CCOCC5)c(C#N)c4)n3)n2)C1 [Example Compound 105, 5-[2-({4-[2-(3-Methoxyazetidin-1-yl)-2-oxoethyl]-1,3-thiazol-2-yl}amino)pyrimidin-4-yl]-2-(tetrahydro-2H-pyran-4-yloxy)benzonitrile] | –
– | 1000 to 5000 | N#Cc1cc(-c2ccnc(Nc3cncc(C(=O)N4CCOCC4)c3)n2)ccc1OC1CCOCC1 [Example Compound 172, 5-(2-{[5-(Morpholin-4-ylcarbonyl)pyridin-3-yl]amino}pyrimidin-4-yl)-2-(tetrahydro-2H-pyran-4-yloxy)benzonitrile] | –
– | 1000 to 5000 | N#Cc1cc(-c2ccnc(Nc3ccnc(C(=O)N4CCCC4)c3)n2)ccc1OC1CCN(C(=O)CO)CC1 [Example Compound 233, 2-{[1-(Hydroxyacetyl)piperidin-4-yl]oxy}-5-(2-{[2-(pyrrolidin-1-ylcarbonyl)pyridin-4-yl]amino}pyrimidin-4-yl)benzonitrile] | –
– | 1000 to 5000 | N#Cc1cc(-c2ccnc(Nc3ccc(N4CCOCC4)cn3)n2)ccc1OC1CCOCC1 [Example Compound 216, 5-(2-{[5-(Morpholin-4-yl)pyridin-2-yl]amino}pyrimidin-4-yl)-2-(tetrahydro-2H-pyran-4-yloxy)benzonitrile] | –
250 to 1000 | – | CN1CCN(c2ccc(Nc3nccc(-c4ccc(OC5CCOCC5)c(C#N)c4)n3)nn2)CC1 [Example Compound 85, 5-(2-{[6-(4-Methylpiperazin-1-yl)pyridazin-3-yl]amino}pyrimidin-4-yl)-2-(tetrahydro-2H-pyran-4-yloxy)benzonitrile] | –
– | 1000 to 5000 | Cn1cc(Nc2nccc(-c3ccc(OC4CCOCC4)c(C#N)c3)n2)cn1 [Example Compound 97, 5-{2-[(1-Methyl-1H-pyrazol-4-yl)amino]pyrimidin-4-yl}-2-(tetrahydro-2H-pyran-4-yloxy)benzonitrile] | –
– | 100 to 250 | N#Cc1cc(-c2ccnc(Nc3ccc(C(=O)N4CCN(CCO)CC4)s3)n2)ccc1OC1CCOCC1 [Example Compound 163, 5-{2-[(5-{[4-(2-Hydroxyethyl)piperazin-1-yl]carbonyl}thiophen-2-yl)amino]pyrimidin-4-yl}-2-(tetrahydro-2H-pyran-4-yloxy)benzonitrile] | –

Further lines, the molecule ahead of its results:

SMILES | IC50 [1, 2] [nM] | IC50 [1] [nM] | also measured
Cc1nccn1-c1ccc(Nc2nccc(-c3ccc(OC4CCOCC4)c(C#N)c3)n2)cn1 [Example Compound 73, 5-(2-{[6-(2-Methyl-1H-imidazol-1-yl)pyridin-3-yl]amino}pyrimidin-4-yl)-2-(tetrahydro-2H-pyran-4-yloxy)benzonitrile] | – | < 100 | –
CC(C)C(=O)Nc1ccc(-c2ccnc(Nc3ccnc(N4CC(O)C4)c3)n2)cc1C#N [Example Compound 246, N-[2-Cyano-4-(2-{[2-(3-hydroxyazetidin-1-yl)pyridin-4-yl]amino}pyrimidin-4-yl)phenyl]-2-methylpropanamide] | – | 1000 to 5000 | –
CCN(CC)c1ccc(Nc2nccc(-c3ccc(OC4CCOCC4)c(C#N)c3)n2)cn1 [Example Compound 153, 5-(2-{[6-(Diethylamino)pyridin-3-yl]amino}pyrimidin-4-yl)-2-(tetrahydro-2H-pyran-4-yloxy)benzonitrile] | – | 100 to 250 | –
COCCNCc1ccc(Nc2nccc(-c3ccc(OC4CCOCC4)c(C#N)c3)n2)cn1 [Example Compound 50, 5-{2-[(6-{[(2-Methoxyethyl)amino]methyl}pyridin-3-yl)amino]pyrimidin-4-yl}-2-(tetrahydro-2H-pyran-4-yloxy)benzonitrile] | 250 to 1000 | – | –
N#Cc1cc(-c2ccnc(Nc3ccnc(C(F)(F)F)c3)n2)ccc1O[C@@H]1CCN(C(=O)CO)C1 [Example Compound 122, 2-{[(3R)-1-(Hydroxyacetyl)pyrrolidin-3-yl]oxy}-5-(2-{[2-(trifluoromethyl)pyridin-4-yl]amino}pyrimidin-4-yl)benzonitrile] | 250 to 1000 | – | –
Cc1ccc(Nc2nccc(-c3ccc(OC4CCN(C(=O)[C@H](C)O)CC4)c(C#N)c3)n2)c[n+]1[O-] [Example Compound 235, 2-({1-[(2S)-2-Hydroxypropanoyl]piperidin-4-yl}oxy)-5-{2-[(6-methyl-1-oxidopyridin-3-yl)amino]pyrimidin-4-yl}benzonitrile] | – | 1000 to 5000 | –
COCCNc1cc(Nc2nccc(-c3ccc(NC(=O)C4CC4)c(C#N)c3)n2)ccn1 [Example Compound 242, N-{2-Cyano-4-[2-({2-[(2-methoxyethyl)amino]pyridin-4-yl}amino)pyrimidin-4-yl]phenyl}cyclopropanecarboxamide] | 250 to 1000 | – | –
COC1CCN(c2cc(Nc3nccc(-c4ccc(OC5CCOCC5)c(C#N)c4)n3)ccn2)C1 (stereo not shown) [Example Compound 181, 5-(2-{[2-(3-Methoxypyrrolidin-1-yl)pyridin-4-yl]amino}pyrimidin-4-yl)-2-(tetrahydro-2H-pyran-4-yloxy)benzonitrile] | – | 1000 to 5000 | –
Cc1ccc(Nc2nccc(-c3ccc(OC4CCN(C(=O)[C@@H](C)O)CC4)c(C#N)c3)n2)cn1 [Example Compound 129, 2-({1-[(2R)-2-Hydroxypropanoyl]piperidin-4-yl}oxy)-5-{2-[(6-methylpyridin-3-yl)amino]pyrimidin-4-yl}benzonitrile] | – | 1000 to 5000 | –
Cc1ccc(Nc2nccc(-c3ccc(OCC4CC4)c(C#N)c3)n2)cn1 [Example Compound 112, 2-(Cyclopropylmethoxy)-5-{2-[(6-methylpyridin-3-yl)amino]pyrimidin-4-yl}benzonitrile] | – | 100 to 250 | –
CN(C)c1ccc(Nc2nccc(-c3ccc(OC4CCN(C(=O)CO)C4)c(C#N)c3)n2)cn1 (stereo not shown) [Example Compound 192, 5-(2-{[6-(Dimethylamino)pyridin-3-yl]amino}pyrimidin-4-yl)-2-{[1-(hydroxyacetyl)pyrrolidin-3-yl]oxy}benzonitrile] | 250 to 1000 | – | –
